ChEMBL document CHEMBL1201862, “PubChem BioAssay data set” (2004)
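Briefly, cells in 96-well plates were exposed to five compound concentrations for 48 h, and endpoints were estimated by linear interpolation. GI50 marks 50% less growth.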 Active and inactive are the calls of the source. Cut-off read from the data, not from the text of the source: active = GI50 up to about 1.1 µM and inactive = higher.

How the values were obtained:
Assay in all cases: NCI tumour cell line growth inhibition, 48 h
HCT-116 = test system: HCT-116
HCC 2998 = test system: HCC 2998
NCI/ADR-RES = test system: NCI/ADR-RES
MOLT-4 = test system: MOLT-4
Malme-3M = test system: Malme-3M
SW-620 = test system: SW-620
CCRF-CEM = test system: CCRF-CEM
OVCAR-8 = test system: OVCAR-8
MDA-N = test system: MDA-N
SF-295 = test system: SF-295
OVCAR-5 = test system: OVCAR-5
SF-539 = test system: SF-539
CAKI-1 = test system: CAKI-1
HCT-15 = test system: HCT-15
SNB-75 = test system: SNB-75
SK-MEL-5 = test system: SK-MEL-5
COLO 205 = test system: COLO 205
SN12C = test system: SN12C
HOP-92 = test system: HOP-92
ACHN = test system: ACHN
DU-145 = test system: DU-145
MDA-MB-435 = test system: MDA-MB-435
UO-31 = test system: UO-31
OVCAR-3 = test system: OVCAR-3
SF-268 = test system: SF-268
MDA-MB-231 = test system: MDA-MB-231
A498 = test system: A498
UACC-62 = test system: UACC-62
NCI-H522 = test system: NCI-H522
PC-3 = test system: PC-3
U-251 = test system: U-251
HL-60 = test system: HL-60
HT-29 = test system: HT-29
Hs-578T = test system: Hs-578T
SK-MEL-2 = test system: SK-MEL-2
SK-MEL-28 = test system: SK-MEL-28
K562 = test system: K562
NCI-H226 = test system: NCI-H226
SR = test system: SR
M14 = test system: M14
SK-OV-3 = test system: SK-OV-3
UACC-257 = test system: UACC-257
KM12 = test system: KM12
SNB-19 = test system: SNB-19
NCI-H460 = test system: NCI-H460
OVCAR-4 = test system: OVCAR-4
EKVX = test system: EKVX
IGROV-1 = test system: IGROV-1
BT-549 = test system: BT-549
786-0 = test system: 786-0
RXF 393 = test system: RXF 393
NCI-H23 = test system: NCI-H23
TK-10 = test system: TK-10
LOX IMVI = test system: LOX IMVI
A549 = test system: A549
HOP-62 = test system: HOP-62

`c1ccc(C2(c3ccccc3)S/C(=C3/SC(c4ccccc4)(c4ccccc4)c4ccccc43)c3ccccc32)cc1` was tested, and the GI50 (HCT-116) was > 100 µM (inactive), the GI50 (HCC 2998) was > 100 µM (inactive) and the GI50 (NCI/ADR-RES) was > 100 µM (inactive). For the same molecule, the GI50 (MOLT-4) was > 100 µM (inactive), the GI50 (Malme-3M) was > 100 µM (inactive) and the GI50 (SW-620) was > 100 µM (inactive). For the same molecule, the GI50 (CCRF-CEM) was > 100 µM (inactive), the GI50 (OVCAR-8) was > 100 µM (inactive) and the GI50 (MDA-N) was > 100 µM (inactive). For the same molecule, the GI50 (SF-295) was > 100 µM (inactive), the GI50 (OVCAR-5) was > 100 µM (inactive) and the GI50 (SF-539) was > 100 µM (inactive). For the same molecule, the GI50 (CAKI-1) was > 100 µM (inactive), the GI50 (HCT-15) was over 100 µM and the GI50 (SNB-75) was > 100 µM (inactive). The GI50 (SK-MEL-5) was > 100 µM (inactive), the GI50 (COLO 205) was > 100 µM (inactive) and the GI50 (SN12C) was > 100 µM (inactive). The GI50 (HOP-92) was > 100 µM (inactive), the GI50 (ACHN) was > 100 µM (inactive) and the GI50 (DU-145) was > 100 µM (inactive). The GI50 (MDA-MB-435) was > 100 µM (inactive), the GI50 (UO-31) was > 100 µM (inactive) and the GI50 (OVCAR-3) was > 100 µM (inactive). For the same molecule, the GI50 (SF-268) was > 100 µM (inactive), the GI50 (MDA-MB-231) was > 100 µM (inactive) and the GI50 (A498) was > 100 µM (inactive). For the same molecule, the GI50 (UACC-62) was > 100 µM (inactive), the GI50 (NCI-H522) was > 100 µM (inactive) and the GI50 (PC-3) was > 100 µM (inactive). For the same molecule, the GI50 (U-251) was > 100 µM (inactive), the GI50 (HL-60) was > 100 µM (inactive) and the GI50 (HT-29) was > 100 µM (inactive). The GI50 (Hs-578T) was > 100 µM (inactive), the GI50 (SK-MEL-2) was > 100 µM (inactive) and the GI50 (SK-MEL-28) was > 100 µM (inactive). The GI50 (K562) was > 100 µM (inactive), the GI50 (NCI-H226) was > 100 µM (inactive) and the GI50 (SR) was > 100 µM (inactive). The GI50 (M14) was > 100 µM (inactive), the GI50 (SK-OV-3) was > 100 µM (inactive) and the GI50 (UACC-257) was > 100 µM (inactive). The GI50 (KM12) was > 100 µM (inactive), the GI50 (SNB-19) was > 100 µM (inactive) and the GI50 (NCI-H460) was > 100 µM (inactive). For the same molecule, the GI50 (OVCAR-4) was > 100 µM (inactive), the GI50 (EKVX) was > 100 µM (inactive) and the GI50 (IGROV-1) was > 100 µM (inactive). For the same molecule, the GI50 (BT-549) was > 100 µM (inactive), the GI50 (786-0) was > 100 µM (inactive) and the GI50 (RXF 393) was > 100 µM (inactive). For the same molecule, the GI50 (NCI-H23) was > 100 µM (inactive), the GI50 (TK-10) was > 100 µM (inactive) and the GI50 (LOX IMVI) was > 100 µM (inactive). For the same molecule, the GI50 (A549) was > 100 µM (inactive) and the GI50 (HOP-62) was > 100 µM (inactive).
